# Source: ChEMBL document CHEMBL6153147 (J Med Chem, 2025)
# Active and inactive are the calls of the source. No cut-off for these calls is given here.
# Assays:
# [1] = Metabolic stability in dog liver microsomes assessed as intrinsic clearance preincubated for 5 mins followed by NADPH addition by LC-MS/MS analysis; type: ADME, Canis lupus familiaris, Microsome; settings: read-out: CLH
# [2] = Tmax in C57BL/6 mouse at 1 mg/kg, iv measured for 0.5 to 12 htr by LC-MS/MS analysis; type: ADME, organism-based; settings: in vivo, time 0.5-12 hrs
# [3] = Acute hematopoietic toxicity in mouse assessed as effect on platelets at 500 mg/kg, IG qd treated for 7 days; type: organism-based; settings: in vivo, po, 168 h, time 7 day
# [4] = target: Serine/threonine-protein kinase PLK2 (Homo sapiens, UniProt Q9NYY3); assay: Inhibition of human PLK2 using ATF2 as substrate incubated for 40 mins in presence of [gamma-33P]ATP/Mg acetate by scintillation counting analysis
# [5] = Acute toxicity in mouse assessed as damage in kidney at 500 mg/kg, IG qd treated for 7 days by H and E staining based analysis; type: organism-based; settings: in vivo, po, 168 h, time 7 day
# [6] = MRT (0 to t) in C57BL/6 mouse at 10 mg/kg, po measured for 0.5 to 12 htr by LC-MS/MS analysis; type: ADME, organism-based; settings: in vivo, time 0.5-12 hrs
# [7] = system: NCI-H460; assay: cells; settings: Homo sapiens
# [8] = target: Epidermal growth factor receptor (Homo sapiens) (UniProt P00533); assay: Inhibition of human EGFR assessed as residual activity at 10 uM by kinome selectivity profiling analysis relative to control
# Sequence of Epidermal growth factor receptor (Homo sapiens) (P00533 whole entry): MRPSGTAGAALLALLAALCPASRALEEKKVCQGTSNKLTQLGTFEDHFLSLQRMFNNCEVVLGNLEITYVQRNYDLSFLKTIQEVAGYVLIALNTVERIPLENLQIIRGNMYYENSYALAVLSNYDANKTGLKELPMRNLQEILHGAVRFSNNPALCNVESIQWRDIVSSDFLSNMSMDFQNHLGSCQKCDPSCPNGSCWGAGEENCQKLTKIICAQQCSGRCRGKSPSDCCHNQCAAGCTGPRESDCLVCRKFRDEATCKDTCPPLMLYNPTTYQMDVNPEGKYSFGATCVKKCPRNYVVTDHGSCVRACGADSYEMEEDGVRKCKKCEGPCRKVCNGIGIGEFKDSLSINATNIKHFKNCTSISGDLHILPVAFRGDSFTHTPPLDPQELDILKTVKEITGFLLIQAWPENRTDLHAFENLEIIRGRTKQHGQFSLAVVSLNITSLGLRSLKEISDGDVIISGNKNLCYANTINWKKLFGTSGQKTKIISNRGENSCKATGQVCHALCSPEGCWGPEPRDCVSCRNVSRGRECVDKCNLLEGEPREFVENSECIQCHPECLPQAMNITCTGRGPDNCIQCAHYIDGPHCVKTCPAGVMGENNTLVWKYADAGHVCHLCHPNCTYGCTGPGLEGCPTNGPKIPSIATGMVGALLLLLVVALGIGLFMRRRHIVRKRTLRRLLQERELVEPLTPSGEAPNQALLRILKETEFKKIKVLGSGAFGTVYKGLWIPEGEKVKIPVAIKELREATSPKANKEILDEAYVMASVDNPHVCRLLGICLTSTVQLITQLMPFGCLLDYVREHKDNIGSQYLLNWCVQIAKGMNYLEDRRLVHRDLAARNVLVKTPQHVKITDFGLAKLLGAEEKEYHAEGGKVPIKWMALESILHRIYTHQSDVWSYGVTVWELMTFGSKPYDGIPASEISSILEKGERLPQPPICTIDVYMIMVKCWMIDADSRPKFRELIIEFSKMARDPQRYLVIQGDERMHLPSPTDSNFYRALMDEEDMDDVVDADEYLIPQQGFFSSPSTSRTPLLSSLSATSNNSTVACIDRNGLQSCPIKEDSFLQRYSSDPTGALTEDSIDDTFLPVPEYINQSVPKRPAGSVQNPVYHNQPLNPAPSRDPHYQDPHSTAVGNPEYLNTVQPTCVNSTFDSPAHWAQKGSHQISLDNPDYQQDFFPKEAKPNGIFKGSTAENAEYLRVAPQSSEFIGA
# [9] = target: Cytochrome P450 3A4 (Homo sapiens, UniProt P08684); assay: Inhibition of CYP3A4 in human liver microsomes using midazolam as substrate preincubated with compound followed by substrate addition measured after 5 mins in presence of NADPH by LC-MS/MS analysis; type: ADME, Microsome
# Sequence of Cytochrome P450 3A4 (P08684 whole entry): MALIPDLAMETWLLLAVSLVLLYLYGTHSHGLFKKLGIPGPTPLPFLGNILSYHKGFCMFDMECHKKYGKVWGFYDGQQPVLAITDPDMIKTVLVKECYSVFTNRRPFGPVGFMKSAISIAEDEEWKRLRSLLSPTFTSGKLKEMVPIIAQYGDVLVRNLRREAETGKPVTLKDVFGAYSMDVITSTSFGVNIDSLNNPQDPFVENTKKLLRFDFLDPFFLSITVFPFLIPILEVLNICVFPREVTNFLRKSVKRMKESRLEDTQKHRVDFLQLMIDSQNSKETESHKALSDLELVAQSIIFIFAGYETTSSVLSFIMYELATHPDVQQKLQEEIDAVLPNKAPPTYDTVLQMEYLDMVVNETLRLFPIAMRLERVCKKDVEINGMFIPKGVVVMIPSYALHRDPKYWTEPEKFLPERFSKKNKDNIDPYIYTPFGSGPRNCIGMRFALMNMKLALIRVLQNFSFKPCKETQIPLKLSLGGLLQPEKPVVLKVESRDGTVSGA
# [10] = Oral bioavailability in C57BL/6 mouse at 10 mg/kg measured for 0.5 to […] htr by LC-MS/MS analysis; type: ADME, organism-based; settings: in vivo, time 0.5-12 hrs
# [11] = system: HL-60; assay: cells; settings: Homo sapiens
# [12] = Toxicity in BALB/c mouse xenografted with human K562 cells assessed as change in body weight at 10 to 20 mg/kg, IG for 11 days treated on every 3 to 4 days; type: organism-based; settings: in vivo, po, 264 h, dose 10-20 mg/kg, time 11 day
# [13] = Half life in C57BL/6 mouse at 1 mg/kg, iv measured for 0.5 to 12 htr by LC-MS/MS analysis; type: ADME, organism-based; settings: in vivo, time 0.5-12 hrs
# [14] = Cmax in C57BL/6 mouse at 10 mg/kg, po measured for 0.5 to […] htr by LC-MS/MS analysis; type: ADME, organism-based; settings: in vivo, time 0.5-12 hrs
# [15] = target: Serine/threonine-protein kinase PLK4 (Homo sapiens) (UniProt O00444); assay: Inhibition of human PLK4 assessed as residual activity at 10 uM by kinome selectivity profiling analysis
# Sequence of Serine/threonine-protein kinase PLK4 (Homo sapiens) (O00444 whole entry): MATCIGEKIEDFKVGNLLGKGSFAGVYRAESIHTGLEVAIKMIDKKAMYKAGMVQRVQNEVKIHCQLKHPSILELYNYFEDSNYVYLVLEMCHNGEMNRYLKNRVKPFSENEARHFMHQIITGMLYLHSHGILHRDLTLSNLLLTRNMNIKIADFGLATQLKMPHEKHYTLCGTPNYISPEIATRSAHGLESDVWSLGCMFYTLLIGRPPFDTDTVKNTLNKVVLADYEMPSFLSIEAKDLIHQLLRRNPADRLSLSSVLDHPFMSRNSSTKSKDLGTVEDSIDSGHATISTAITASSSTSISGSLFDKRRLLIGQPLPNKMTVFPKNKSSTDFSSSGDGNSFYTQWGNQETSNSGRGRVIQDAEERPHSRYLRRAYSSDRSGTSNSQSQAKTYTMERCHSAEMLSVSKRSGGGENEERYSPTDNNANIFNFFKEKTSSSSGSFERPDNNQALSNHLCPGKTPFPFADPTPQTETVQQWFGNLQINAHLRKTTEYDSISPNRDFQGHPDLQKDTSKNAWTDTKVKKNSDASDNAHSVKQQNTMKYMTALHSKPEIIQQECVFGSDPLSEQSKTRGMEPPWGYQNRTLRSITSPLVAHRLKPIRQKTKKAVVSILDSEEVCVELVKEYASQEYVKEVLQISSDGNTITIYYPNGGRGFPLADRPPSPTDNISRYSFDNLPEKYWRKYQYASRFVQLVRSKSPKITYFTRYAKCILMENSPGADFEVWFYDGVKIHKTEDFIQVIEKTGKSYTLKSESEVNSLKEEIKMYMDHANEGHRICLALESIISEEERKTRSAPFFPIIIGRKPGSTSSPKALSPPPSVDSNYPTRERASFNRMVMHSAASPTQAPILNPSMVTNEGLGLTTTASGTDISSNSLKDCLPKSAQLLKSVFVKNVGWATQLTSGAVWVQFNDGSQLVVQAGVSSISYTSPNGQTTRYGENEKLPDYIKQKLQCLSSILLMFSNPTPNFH
# [16] = target: Serine/threonine-protein kinase PLK4 (Homo sapiens) (UniProt O00444); assay: Inhibition of human PLK4 assessed as residual activity at 10 uM by kinome selectivity profiling analysis relative to control
# [17] = Effect on mitochondrial membrane integrity in HEK293T cells at 10 uM incubated for 24 hrs by JC-1 dye based analysis; type: toxicity, cell-based; settings: human, hek-293t
# [18] = target: Cyclin-dependent kinase 6 (Homo sapiens) (UniProt Q00534); assay: Inhibition of human CDK6 assessed as residual activity at 10 uM by kinome selectivity profiling analysis relative to control
# Sequence of Cyclin-dependent kinase 6 (Homo sapiens) (Q00534 whole entry): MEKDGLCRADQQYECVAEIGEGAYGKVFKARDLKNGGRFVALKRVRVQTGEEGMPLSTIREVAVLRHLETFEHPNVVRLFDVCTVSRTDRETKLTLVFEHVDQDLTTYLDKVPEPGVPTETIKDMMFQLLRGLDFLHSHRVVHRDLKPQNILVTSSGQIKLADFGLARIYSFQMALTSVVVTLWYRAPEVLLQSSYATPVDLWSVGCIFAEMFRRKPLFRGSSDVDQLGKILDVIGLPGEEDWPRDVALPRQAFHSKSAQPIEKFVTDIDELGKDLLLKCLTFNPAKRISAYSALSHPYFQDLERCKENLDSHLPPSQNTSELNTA
# [19] = AUC (0 to infinity) in C57BL/6 mouse at 1 mg/kg, iv measured for 0.5 to 12 htr by LC-MS/MS analysis; type: ADME, organism-based; settings: in vivo, time 0.5-12 hrs
# [20] = Clearance in C57BL/6 mouse at 1 mg/kg, iv measured for 0.5 to […] htr by LC-MS/MS analysis; type: ADME, organism-based; settings: in vivo, time 0.5-12 hrs
# [21] = target: Cytochrome P450 2C9 (Homo sapiens, UniProt P11712); assay: Inhibition of CYP2C9 in human liver microsomes using diclofenac as substrate preincubated with compound followed by substrate addition measured after 10 mins in presence of NADPH by LC-MS/MS analysis; type: ADME, Microsome
# Sequence of Cytochrome P450 2C9 (P11712 whole entry): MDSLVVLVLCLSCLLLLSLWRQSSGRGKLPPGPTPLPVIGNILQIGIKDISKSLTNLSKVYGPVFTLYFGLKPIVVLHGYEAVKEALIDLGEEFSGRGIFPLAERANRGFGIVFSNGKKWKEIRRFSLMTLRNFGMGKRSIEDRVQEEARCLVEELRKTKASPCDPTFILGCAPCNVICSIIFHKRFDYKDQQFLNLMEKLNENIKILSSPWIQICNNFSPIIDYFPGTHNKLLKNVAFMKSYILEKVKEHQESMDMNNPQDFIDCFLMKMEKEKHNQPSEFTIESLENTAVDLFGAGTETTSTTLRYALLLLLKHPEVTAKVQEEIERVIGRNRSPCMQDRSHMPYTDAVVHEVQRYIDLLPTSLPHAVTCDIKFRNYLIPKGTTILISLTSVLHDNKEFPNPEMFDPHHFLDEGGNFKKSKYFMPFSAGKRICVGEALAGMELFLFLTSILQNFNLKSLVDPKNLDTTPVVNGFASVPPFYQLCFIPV
# [22] = Tmax in C57BL/6 mouse at 10 mg/kg, po measured for 0.5 to 12 htr by LC-MS/MS analysis; type: ADME, organism-based; settings: in vivo, time 0.5-12 hrs
# [23] = AUC (0 to infinity) in C57BL/6 mouse at 10 mg/kg, po measured for 0.5 to 12 htr by LC-MS/MS analysis; type: ADME, organism-based; settings: in vivo, time 0.5-12 hrs
# [24] = target: Calcium/calmodulin-dependent protein kinase kinase 1 (Homo sapiens) (UniProt Q8N5S9); assay: Inhibition of human CaMKK1 assessed as residual activity at 10 uM by kinome selectivity profiling analysis relative to control
# Sequence of Calcium/calmodulin-dependent protein kinase kinase 1 (Homo sapiens) (Q8N5S9 whole entry, looked up): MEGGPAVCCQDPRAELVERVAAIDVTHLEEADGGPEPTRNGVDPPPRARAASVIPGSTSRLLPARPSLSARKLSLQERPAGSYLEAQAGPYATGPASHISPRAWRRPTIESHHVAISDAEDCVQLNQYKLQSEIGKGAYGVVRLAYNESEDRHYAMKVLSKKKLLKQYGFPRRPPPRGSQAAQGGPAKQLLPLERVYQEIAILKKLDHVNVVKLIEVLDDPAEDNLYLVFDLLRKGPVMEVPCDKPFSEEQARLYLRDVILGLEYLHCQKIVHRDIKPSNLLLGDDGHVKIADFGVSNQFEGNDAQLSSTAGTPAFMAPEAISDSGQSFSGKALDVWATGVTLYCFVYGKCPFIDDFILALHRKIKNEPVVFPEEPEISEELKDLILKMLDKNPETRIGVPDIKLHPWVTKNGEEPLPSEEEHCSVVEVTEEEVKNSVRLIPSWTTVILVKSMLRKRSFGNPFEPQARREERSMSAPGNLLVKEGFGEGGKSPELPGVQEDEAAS
# [25] = system: SW-620; assay: cells; settings: Homo sapiens
# [26] = system: CCRF-CEM; assay: cells; settings: Homo sapiens
# [27] = AUC (0 to t) in C57BL/6 mouse at 10 mg/kg, po measured for 0.5 to […] htr by LC-MS/MS analysis; type: ADME, organism-based; settings: in vivo, time 0.5-12 hrs
# [28] = Metabolic stability in human liver microsomes assessed as intrinsic clearance preincubated for 5 mins followed by NADPH addition by LC-MS/MS analysis; type: ADME, Microsome; settings: read-out: CLH
# [29] = system: HEK-293T; assay: Cytotoxicity against HEK293T cells by CCK8 assay; type: toxicity, cell-based; settings: human, dose 0.1-30 µM
# [30] = Acute toxicity in mouse assessed as damage in lung at 500 mg/kg, IG qd treated for 7 days by H and E staining based analysis; type: organism-based; settings: in vivo, po, 168 h, time 7 day
# [31] = Cytotoxicity against HEK293T cells assessed as cell viability at 30 uM by CCK8 assay relative to control; type: toxicity, cell-based, HEK-293T; settings: human, read-out: Activity
# [32] = target: Cytochrome P450 2C19 (Homo sapiens, UniProt P33261); assay: Inhibition of CYP2C19 in human liver microsomes using S-mephenytoin as substrate preincubated with compound followed by substrate addition measured after 10 mins in presence of NADPH by LC-MS/MS analysis; type: ADME, Microsome
# Sequence of Cytochrome P450 2C19 (P33261 whole entry): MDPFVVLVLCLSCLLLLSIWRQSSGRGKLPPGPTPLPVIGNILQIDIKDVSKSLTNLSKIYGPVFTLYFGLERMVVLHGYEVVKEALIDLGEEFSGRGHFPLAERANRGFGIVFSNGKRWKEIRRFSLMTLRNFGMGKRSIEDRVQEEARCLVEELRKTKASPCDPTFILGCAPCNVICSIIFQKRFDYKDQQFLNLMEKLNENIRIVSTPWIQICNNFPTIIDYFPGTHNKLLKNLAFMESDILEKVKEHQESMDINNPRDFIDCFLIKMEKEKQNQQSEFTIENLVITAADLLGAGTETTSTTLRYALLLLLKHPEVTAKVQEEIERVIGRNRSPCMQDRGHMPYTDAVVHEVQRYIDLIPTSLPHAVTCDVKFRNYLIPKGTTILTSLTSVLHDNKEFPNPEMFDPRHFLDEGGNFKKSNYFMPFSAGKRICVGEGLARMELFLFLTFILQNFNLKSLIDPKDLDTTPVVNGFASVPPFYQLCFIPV
# [33] = MRT (0 to t) in C57BL/6 mouse at 1 mg/kg, iv measured for 0.5 to 12 htr by LC-MS/MS analysis; type: ADME, organism-based; settings: in vivo, time 0.5-12 hrs
# [34] = Cmax in C57BL/6 mouse at 1 mg/kg, iv measured for 0.5 to […] htr by LC-MS/MS analysis; type: ADME, organism-based; settings: in vivo, time 0.5-12 hrs
# [35] = target: Myosin-IIIb (Homo sapiens) (UniProt Q8WXR4); assay: Inhibition of human MYO3B assessed as residual activity at 10 uM by kinome selectivity profiling analysis relative to control
# [36] = Metabolic stability in mouse liver microsomes assessed as intrinsic clearance in microsome measured per mg protein preincubated for 5 mins followed by NADPH addition by LC-MS/MS analysis; type: ADME; settings: read-out: CLH
# [37] = Acute toxicity in mouse assessed as effect on behaviour at 500 mg/kg, IG qd treated for 7 days; type: organism-based; settings: in vivo, po, 168 h, time 7 day
# [38] = system: HEK-293T; assay: Effect on mitochondrial membrane potential in HEK293T cells at 10 uM incubated for 24 hrs by MitoTracker Red probe based analysis; type: toxicity, cell-based; settings: human
# [39] = Toxicity in BALB/c mouse xenografted with human K562 cells assessed as adverse effects at 10 to 20 mg/kg, IG for 11 days treated on every 3 to 4 days; type: organism-based; settings: in vivo, po, 264 h, dose 10-20 mg/kg, time 11 day
structure (smiles),measurement,setting,value
CC[C@@H]1C(=O)N(C)c2cnc(Nc3cc(N4CCN(C)CC4)cc(Cl)c3OCCCO)nc2N1C1CCCC1,CLint scaled,[1],474 mL/min/kg
same,Tmax,[2],4.98 min
same,Activity,[3],Non-toxic
same,IC50,[4],> 10000 nM
same,Activity,[5],Non-toxic
same,MRT last,[6],120 min
same,IC50,[7],12 nM
same,Activity,[8],107%
same,IC50,[9],> 10000 nM
same,bioavailability,[10],45%
same,IC50,[11],59 nM
same,Activity,[12],Non-toxic
same,half-life,[13],35.4 min
same,Cmax,[14],328 ng/mL
same,inhibition,[15],inactive
same,Activity,[16],104%
same,Activity,[17],Non-toxic
same,Activity,[18],103%
same,AUC(0-inf),[19],183 ng·h/mL
same,clearance,[20],91 mL/min/kg
same,IC50,[21],9600 nM
same,Tmax,[22],45 min
same,AUC(0-inf),[23],825 ng·h/mL
same,Activity,[24],70%
same,IC50,[25],8.2 nM
same,IC50,[26],41 nM
same,AUC(0-t),[27],820 ng·h/mL
same,CLint scaled,[28],85.6 mL/min/kg
same,Activity,[29],Dose-dependent-effect
same,Activity,[30],Non-toxic
same,viability at 30 µM,[31],68%
same,IC50,[32],1900 nM
same,MRT last,[33],39.6 min
same,Cmax,[34],264 ng/mL
same,Activity,[35],44%
same,microsomal CLint,[36],210 µL/min/mg
same,Activity,[37],Non-toxic
same,Activity,[38],Non-toxic
same,Activity,[39],Non-toxic
